We go through eight compounds from article PMC10377034, “Syntheses of 25-Adamantyl-25-alkyl-2-methylidene-1α,25-dihydroxyvitamin D3 Derivatives with Structure–Function Studies of Antagonistic and Agonistic Active Vitamin D Analogs” (Biomolecules, 2023).

Assay [1] has as its system human dedifferentiated fat (DFAT) cells. Nature of the assay: Osteogenic differentiation assay: ALP activity in human DFAT cells. It is filed as cell-based. Particulars: osteogenic medium, 100 nM, 7 days, natural hormone 1 = 100%. As to the method:
Mature adipocytes from the adipose tissue of mammals such as humans and rodents can be dedifferentiated into pluripotent cells using ceiling culture. Dedifferentiated fat (DFAT) cells have potential applications in both regenerative medicine and injury healing, as well as mesenchymal stem cells, embryonic stem cells, and induced pluripotent stem cells. The osteogenic activity of vitamin D derivatives was assessed based on alkaline phosphatase (ALP) activity.
Samples of human subcutaneous adipose tissue were obtained from patients who underwent surgery in the Department of Pediatric Surgery at Nihon University Itabashi Hospital (Tokyo, Japan). The patients gave their written informed consent, and the Ethics Committee of Nihon University School of Medicine approved this study. We prepared dedifferentiated fat (DFAT) cells using the ceiling culture method, as described previously. Briefly, the adipose tissue (approximately 1 g) was cut into small pieces and digested with a 0.1% type I collagenase solution (Koken Co., Ltd., Tokyo, Japan). […] The cells that adhered to the upper surface of the flasks were cultured for conversion to dedifferentiated fat cells. […] Cells at passages 2–4 were used for differentiation experiments.
Cells were grown to confluency in 24-well plates and incubated for a week in DMEM containing 10% FBS, 100 nM dexamethasone (Merk), 10 mM β-glycerophosphate (Merk), and […] L-ascorbic acid-2-phosphate (Merk), with 100 nM of each compound. The induction medium was replaced on day 4. The alkaline phosphatase (ALP) activity in the cell lysates was determined on day 7 with a lab assay ALP kit (Fujifilm wako). The total protein content was determined with the BCA protein assay kit (Thermo Fisher Scientific). ALP levels were normalized to the total protein content.

Assay [2] has as its system CYP24A1 expression in HEK293 cells. Put plainly: CYP24A1 expression (RT-qPCR) in HEK293 cells. Particulars: HEK293 kidney cells, 100 nM, 24 h.
Description: (§1) HEK293 human kidney cells (RIKEN Cell Bank, Tsukuba, Japan) were cultured in Dulbecco’s modified Eagle’s medium (DMEM) (Fujifilm Wako Pure Chemical Corporation, Tokyo, Japan) containing 5% fetal bovine serum (FBS), 100 U/mL penicillin, and 0.1 mg/mL streptomycin (Nacalai Tesque, Kyoto, Japan). SW480 human colon carcinoma cells (American Type Culture Collection, Manassas, VA) and HaCaT immortalized keratinocyte cells (kindly provided by Dr. Tadashi Terui, Department of Dermatology, Nihon University School of Medicine) were cultured in DMEM containing 10% FBS, 100 U/mL penicillin, and 0.1 mg/mL streptomycin. MG63 human osteosarcoma cells (RIKEN Cell Bank) and lung-derived H292 cells (American Type Culture Collection) were cultured in minimum essential medium containing 10% FBS, 100 U/mL penicillin, and 0.1 mg/mL streptomycin. […] All cells were cultured at 37 °C in a humidified atmosphere containing 5% CO2.
(§2) For gene expression analysis, 1 × 10^4 cells per well were plated in a 24-well plate. After 24 h, the cells were treated with an ethanol control or 100 nM of each test compound for 24 h. […] Real-time PCR was performed on the ABI PRISM 7000 sequence detection system (Thermo Fisher Scientific, Waltham, MA, USA) using Power SYBR Green PCR master mix (Thermo Fisher Scientific).
Assay [3] addresses T1, recombinant hVDR-LBD (Homo sapiens, UniProt P11473).
T1 sequence (P11473 140-427): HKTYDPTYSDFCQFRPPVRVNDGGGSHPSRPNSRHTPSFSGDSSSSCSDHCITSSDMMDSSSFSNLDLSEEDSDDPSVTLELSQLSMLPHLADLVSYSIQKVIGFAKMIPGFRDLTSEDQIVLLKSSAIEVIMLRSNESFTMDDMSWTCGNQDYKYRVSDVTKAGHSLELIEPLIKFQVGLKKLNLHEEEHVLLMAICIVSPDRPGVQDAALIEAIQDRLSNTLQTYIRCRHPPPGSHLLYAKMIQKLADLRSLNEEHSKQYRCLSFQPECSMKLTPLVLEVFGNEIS
Particulars: relative to 1,25(OH)2D3.

The next assay addresses T2, VDR with NCoR (Homo sapiens, UniProt P11473).
T2 sequence (P11473 1-427): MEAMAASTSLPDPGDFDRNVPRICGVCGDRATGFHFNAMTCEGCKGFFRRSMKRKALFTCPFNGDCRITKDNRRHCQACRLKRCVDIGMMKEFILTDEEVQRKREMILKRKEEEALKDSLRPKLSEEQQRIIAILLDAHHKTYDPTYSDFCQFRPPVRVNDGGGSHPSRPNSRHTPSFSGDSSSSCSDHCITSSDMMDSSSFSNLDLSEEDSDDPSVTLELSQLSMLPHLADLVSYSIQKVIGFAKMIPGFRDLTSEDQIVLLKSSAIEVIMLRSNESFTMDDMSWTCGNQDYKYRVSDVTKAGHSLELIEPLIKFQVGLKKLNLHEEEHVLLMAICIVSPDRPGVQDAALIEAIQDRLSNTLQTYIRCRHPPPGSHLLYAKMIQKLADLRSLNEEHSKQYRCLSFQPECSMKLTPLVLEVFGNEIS
Nature of the assay: Mammalian two-hybrid assay, dissociation of NCoR from the VDR.

Assay [4] has as its system CYP24A1 expression in U937 cells. Put plainly: CYP24A1 expression (RT-qPCR) in U937 cells. As to conditions: U937 blood cells, 100 nM, 24 h. (In general: In qPCR the cycle at which signal appears reflects the starting amount.)
Description: (§3) SW480 human colon carcinoma cells (American Type Culture Collection, Manassas, VA) and HaCaT immortalized keratinocyte cells (kindly provided by Dr. Tadashi Terui, Department of Dermatology, Nihon University School of Medicine) were cultured in DMEM containing 10% FBS, 100 U/mL penicillin, and 0.1 mg/mL streptomycin. […] All cells were cultured at 37 °C in a humidified atmosphere containing 5% CO2.
(§4) For gene expression analysis, 1 × 10^4 cells per well were plated in a 24-well plate. After 24 h, the cells were treated with an ethanol control or 100 nM of each test compound for 24 h. The total RNAs from the samples were extracted using the acid guanidine thiocyanate phenol/chloroform method [57], and cDNAs were synthesized using the ImProm-II reverse transcription system (Promega, Madison, WI) [43]. Real-time PCR was performed on the ABI PRISM 7000 sequence detection system (Thermo Fisher Scientific, Waltham, MA, USA) using Power SYBR Green PCR master mix (Thermo Fisher Scientific).
(§5) One-way ANOVA followed by Turkey’s multiple comparisons: ※ p < 0.05, ※※ p < 0.01, ※※※ p < 0.001 versus vehicle control.
Assay [5] has as its target T1, recombinant hVDR-LBD. Nature of the assay: biochemical.
Another assay addresses T3, hVDR (Homo sapiens, UniProt P11473).
T3 construct: expressed in transfected cells; host or cells: HEK293
T3 sequence (P11473 1-427): T2 sequence (P11473 1-427)
Put plainly: VDR transactivation luciferase reporter assay in HEK293 cells (SPP×3-tk-LUC). It counts as cell-based. On the procedure: The transcriptional activity of the 25-alkylvitamin D analogs on the VDR was evaluated via a luciferase reporter assay in HEK293 human kidney cells transfected with an hVDR expression vector and a luciferase reporter with mouse osteopontin vitamin D response elements (VDREs, SPP×3-tk-LUC).
Transfections of 50 ng of TK-Spp × 3-LUC reporter plasmid, 10 ng of pCMX-β-galactosidase, and 15 ng of pCMX-VDR for each well of a 96-well plate were performed in HEK293 cells using the calcium phosphate coprecipitation method, as described previously. The mammalian two-hybrid assay for cofactor interaction with VDR used 50 ng of TK-MH100(UAS) × 3- LUC reporter plasmid, 10 ng of pCMX-β-galactosidase, 15 ng of pCMX-GAL4-RXRα, pCMX-GAL4-SRC1, or pCMX-GAL4-NCoR, and 15 ng of pCMX-VP16-VDR for each well of a 96-well plate. Luciferase and β-galactosidase activities were measured with a luminometer and a microplate reader (Molecular Devices, Sun Jose, CA, USA), respectively. Luciferase values were normalized to the internal β-galactosidase control.
HEK293 cells were co-transfected with TK-Spp × 3-LUC reporter plasmid and pCMX−VDR, and 8 h after transfection the cells were treated with several concentrations of each compound. After 24 h, the cells were harvested for assaying luciferase and β-galactosidase activity using a luminometer (Molecular Devices, Sunnyvale, CA, USA).
Background: Reporter assays use an easily measured gene product as a stand-in for the process of interest.

A further assay deals with T4, VDR with SRC-1 (Homo sapiens, UniProt P11473).
T4 sequence (P11473 1-427): T2 sequence (P11473 1-427)
T4 sequence (Q15788 595-771 partner limits assumed): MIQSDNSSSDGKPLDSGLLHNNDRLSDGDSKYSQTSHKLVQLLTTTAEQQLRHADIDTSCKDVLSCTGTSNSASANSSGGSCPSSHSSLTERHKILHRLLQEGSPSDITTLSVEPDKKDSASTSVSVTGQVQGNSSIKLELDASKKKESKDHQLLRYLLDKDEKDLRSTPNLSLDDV
Put plainly: Mammalian two-hybrid assay, VDR binding to SRC-1.

Assay [6] relates to CYP24A1 expression in HaCaT cells. Put plainly: CYP24A1 expression (RT-qPCR) in HaCaT cells. As to conditions: HaCaT skin cells, 100 nM, 24 h.
Description: as §3, §4, §5
Assay [7] concerns CYP24A1 expression in MG63 cells. Nature of the assay: CYP24A1 expression (RT-qPCR) in MG63 cells. As to conditions: MG63 bone cells, 100 nM, 24 h.
Description: as §1, §2
Assay [8] concerns CYP24A1 expression in H292 cells. Put plainly: CYP24A1 expression (RT-qPCR) in H292 cells. Particulars: H292 lung cells, 100 nM, 24 h.
Description: as §1, §2
The target in another assay is T5, VDR with RXRα (Homo sapiens, UniProt P11473).
T5 sequence (P11473 1-427): T2 sequence (P11473 1-427)
T5 sequence (P19793 1-462 partner): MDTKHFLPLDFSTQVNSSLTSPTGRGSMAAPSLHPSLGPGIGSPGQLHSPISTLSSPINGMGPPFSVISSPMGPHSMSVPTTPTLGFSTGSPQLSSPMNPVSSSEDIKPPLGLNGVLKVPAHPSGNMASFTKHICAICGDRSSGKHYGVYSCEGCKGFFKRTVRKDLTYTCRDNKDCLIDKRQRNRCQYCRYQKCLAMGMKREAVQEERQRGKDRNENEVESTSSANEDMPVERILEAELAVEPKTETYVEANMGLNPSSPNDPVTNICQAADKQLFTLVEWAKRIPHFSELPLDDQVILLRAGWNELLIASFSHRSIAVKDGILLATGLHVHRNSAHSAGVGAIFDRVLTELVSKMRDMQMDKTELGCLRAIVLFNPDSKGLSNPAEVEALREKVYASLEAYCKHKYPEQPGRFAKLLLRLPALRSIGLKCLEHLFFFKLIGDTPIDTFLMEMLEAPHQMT
Put plainly: Mammalian two-hybrid assay, interaction of the VDR with RXRα.

Assay [9] has as its system CYP24A1 expression in SW480 cells. Nature of the assay: CYP24A1 expression (RT-qPCR) in SW480 cells. As to conditions: SW480 intestine cells, 100 nM, 24 h.
Description: as §1, §2
Assay [10] has as its system VDR. Particulars: literature values, cited from earlier work; for EC50: read-out: Transcriptional Activity EC50.
Assay [11] has as its system VDR. As to conditions: cited from earlier work; for IC50: literature values, read-out: VDR Affinity IC50; for VDR affinity, % of that of 1: relative to 1,25(OH)2D3 (1).
The test system of assay [12] is VDR. Particulars: antagonist activity for 1; read-out: Antagonistic Activity IC50; cited from earlier work.

Like-named read-outs stand apart in the source and are kept apart here.

The IC50 is the concentration that gives 50% inhibition. The EC50 is the midpoint of the concentration-response curve.

Description for VDR with NCoR: (§6) We used the expression plasmids pCMX-VDR, pCMX-VP16- VDR, pCMX-GAL4-RXRα, pCMX-GAL4-SRC-1, and pCMX-GAL4- N-CoR, as reported previously [43]. […] We used luciferase reporters: VDR-responsive Sppx3-tk-LUC and GAL4-responsive MH100(UAS) × 4-tk-LUC reporters [43].
(§7) Transfections of 50 ng of TK-Spp × 3-LUC reporter plasmid, 10 ng of pCMX-β-galactosidase, and 15 ng of pCMX-VDR for each well of a 96-well plate were performed in HEK293 cells using the calcium phosphate coprecipitation method, as described previously [43]. The mammalian two-hybrid assay for cofactor interaction with VDR used 50 ng of TK-MH100(UAS) × 3- LUC reporter plasmid, 10 ng of pCMX-β-galactosidase, 15 ng of pCMX-GAL4-RXRα, pCMX-GAL4-SRC1, or pCMX-GAL4-NCoR, and 15 ng of pCMX-VP16-VDR for each well of a 96-well plate. Luciferase and β-galactosidase activities were measured with a luminometer and a microplate reader (Molecular Devices, Sun Jose, CA, USA), respectively. Luciferase values were normalized to the internal β-galactosidase control.
(§8) (B) Effects on the interactions between the VDR and SRC-1. HEK293 cells were co-transfected with CMX-GAL4-SRC-1, CMX-VP16-VDR, and MH100 (UAS) × 4-tk-LUC and were treated with each compound over a range of concentrations. (C) Effects on interactions of the VDR with NCoR-1. HEK293 cells were co-transfected with CMX-GAL4-N-CoR in combination with CMX-VP16-VDR and MH100 (UAS) × 4-tk-LUC and were treated with each compound over a range of concentrations.
Description for VDR with RXRα: as §6, §7, §8
Description for VDR with SRC-1: as §6, §7, §8

On to `C=C1/C(=C\C=C2/CCC[C@]3(C)[C@@H]([C@H](C)CCCC(C)(C)O)CC[C@@H]23)C[C@@H](O)C[C@@H]1O` [1,25(OH)2D3, 1α,25-dihydroxyvitamin D3], for which the ALP activity in assay [1] stood at 100%.

Regarding `C=C1[C@H](O)CC(=C/C=C2\CCC[C@]3(C)[C@@H]([C@H](C)CC#C[C@@](C)(O)C45CC6CC(CC(C6)C4)C5)CC[C@@H]23)C[C@H]1O` [ADKM2, (25S)-25-(1-Adamantyl)-1α,25-dihydroxy-2-methylidene-23-yne-19,27-dinorvitamin D3], the “CYP24A1 expression relative to natural hormone 1” value in [2] is listed as 33.2%; in assay [4], 77.8%; in assay [6], 85.6%; in [7], 63%; in [8], 50.1%; in [9], 42.3%. Besides, the ALP activity in [1] is recorded as 98.8%. At recombinant hVDR-LBD [3], the “VDR affinity, % of that of 1,25(OH)2D3” value is recorded as 67%. Besides, the concentration for half-maximal inhibition (IC50) at VDR with NCoR stood at 0.4 nM; on recombinant hVDR-LBD [5], 0.6 nM. For the same compound, the Transcriptional activity efficacy on hVDR (1,25(OH)2D3 = 100%) is given as 101%. On hVDR (this study, read-out: Transcriptional Activity % Efficacy of That of 1 (converted)), the Emax is 101%. Moreover, the EC50 at hVDR (this study, read-out: Transcriptional Activity EC50) amounted to 0.2 nM; on VDR with SRC-1, 0.6 nM; at VDR with RXRα, 0.1 nM.

Consider `C=C1[C@H](O)CC(=C/C=C2\CCC[C@]3(C)[C@@H]([C@@H](C)/C=C/C[C@H](O)CC45CC6CC(CC(C6)C4)C5)CC[C@@H]23)C[C@H]1O` [ADMI3, (25S)-26-adamantyl-25-hydroxy-2-methylene-22,23-didehydro-19,27-dinor-20-epi-vitamin D3], for which, in the assay on VDR [10], the “Transcriptional Activity % Efficacy of That of 1” value is 10%. Besides, in the assay with VDR [11], the IC50 was 0.6 nM and the “VDR affinity, % of that of 1” value was 17%.

`C=C1/C(=C\C=C2/CCC[C@]3(C)[C@@H]([C@H](C)CC#C[C@@H](O)C45CC6CC(CC(C6)C4)C5)CC[C@@H]23)C[C@@H](O)C[C@@H]1O` [ADOR1, 25 S-sdamantyl-23-yne-26,27-dinor-1α,25-dihydroxyvitamin D(3)]: in the assay with VDR [10], the “Transcriptional Activity % Efficacy of That of 1” value was 87% and the EC50 was 0.03 nM. In addition, in the assay on VDR [11], the IC50 is 0.24 nM.

Consider `C=C1/C(=C\C=C2/CCC[C@]3(C)[C@@H]([C@H](C)CC#C[C@H](O)C45CC6CC(CC(C6)C4)C5)CC[C@@H]23)C[C@@H](O)C[C@@H]1O` [ADOR2], for which, in the assay on VDR [10], the “Transcriptional Activity % Efficacy of That of 1” value is greater than 52% and the EC50 is 5.7 nM. For the same compound, in the assay with VDR [11], the 50% inhibitory concentration (IC50) was 0.6 nM.

Turning to `C=C1[C@H](O)CC(=C/C=C2\CCC[C@]3(C)[C@@H]([C@@H](C)/C=C/C[C@@H](O)C45CC6CC(CC(C6)C4)C5)CC[C@@H]23)C[C@H]1O` [ADTT], the concentration for half-maximal inhibition (IC50) in the assay on VDR [12] is 3 nM. In the assay on VDR [10], the “Transcriptional Activity % Efficacy of That of 1” value is 15% and the EC50 is 1 nM. For the same compound, in the assay with VDR [11], the IC50 was 0.13 nM and the “VDR affinity, % of that of 1” value is recorded as 67%.

`C=C1C[C@H](C[C@@H](C)[C@H]2CC[C@H]3/C(=C/C=C4/C[C@@H](O)C[C@H](O)C4=C)CCC[C@]23C)OC1=O` [TEI-9647, (23S)-25-dehydro-1α-hydroxyvitamin D3-26,23-lactone]: the IC50 with VDR [12] was 100 nM; in the assay with VDR [11] it was 1 nM. Moreover, in the assay on VDR [10], the concentration giving a half-maximal response (EC50) was 50 nM.

`C=C1/C(=C\C=C2/CCC[C@]3(C)[C@@H]([C@H](C)/C=C/[C@@H](O)C4(C(=O)O/C=C\C(=O)OCC)CC4)CC[C@@H]23)C[C@@H](O)C[C@@H]1O` [ZK168281]: in the assay with VDR [12], the IC50 is 50 nM.
